Assays:
[1] = tested on: bEnd.3 mouse endothelial cells; assay: γH2AX foci count after bleomycin DSB induction, bEnd.3; format: cell-based; settings: for Induced DSB number: one-hour treatment
Description: (§1) CHO-K1, bEnd.3 or transfected CHO-K1 cells were seeded in chambers of an 8-well chambered cover glass (Cellvis, Mountain View, Calif.) at 2×10^5 cells/mL with 0.5 mL culture media. After 24-hour incubation, cells were treated with 10 μg/mL bleomycin (Sigma-Aldrich, St. Louis, Mo.) for 1 or 12 hours or with 50 μg/mL for 1 hour, followed by immediate media change with fresh warm culture media. After indicated hours of incubation in fresh media, the treated cells were washed three times with Tris buffered saline (TBS), fixed with 4% paraformaldehyde in TBS for 15 min, washed three times with TBS, permeabilized with 0.1% Triton-X100 (Sigma-Aldrich, St. Louis, Mo.) in TBS for 5 min, and washed three times with TBS. Cells were then blocked in TBS containing 3% goat serum (Sigma-Aldrich, St. Louis, Mo.) for 1 hour, incubated with 1:500 primary antibody (anti-phosphorylated γH2AX antibody, EMD Millipore, Billerica, Mass.) at 4° C. overnight, washed three times with TBS, and incubated with 1:1000 Alexa Fluor 488-conjugated secondary antibody (anti-mouse IgG antibody, Life Technologies, Carlsbad, Calif.) for 1 hour at room temperature. After three TBS washes, nuclei were stained with 4′,6-diamidino-2-phenylindole (DAPI, Invitrogen, Carlsbad, Calif.) for 15 min and again washed three times with TBS. Images were taken using a LSM 710 confocal microscope (Carl Zeiss, Thornwood, N.Y.) with a 63× objective. At least 50 cells and foci were counted per cell sample in duplicate cultures using software ImageJ.

[2] = tested on: CHO-K1 cells; assay: γH2AX foci count after bleomycin DSB induction, CHO-K1; format: cell-based, Chinese hamster; settings: for Induced DSB number: one-hour treatment
Description: as §1

[3] = tested on: BHK-21 hamster fibroblast; assay: γH2AX foci count after bleomycin DSB induction, BHK-21; format: cell-based; settings: for Induced DSB number: one-hour treatment
Description: [The source words this procedure for another cell line and reports this cell line under the same test.] as §1

[4] = tested on: CHO-K1 cells; assay: γH2AX foci count in CHO-K1 cells transiently expressing DSB repair genes after bleomycin treatment; format: cell-based, Chinese hamster; settings: CH-version gene transiently expressed; 12-hour 10 μg/mL bleomycin; FIG. 3
Source text: To clone eight DSB repair genes, total mRNA from CHO-K1 cells or Chinese hamster liver tissue was extracted using Qiagen RNeasy Mini kit and reverse-transcribed into cDNA to be used as templates to generate gene fragments by PCR. FBXO18 gene and partial sequences of RNF8 and LIG4 genes were synthesized as gBlocks Gene Fragments (Integrated DNA Technologies, Coralville, Iowa). A vector fragment was obtained by PCR amplification from plasmid pcDNA3.1/zeo(+) (Thermo Fisher, Waltham, Mass.). Plasmids expressing DSB repair genes were constructed via Gibson assembly of gene fragment(s) and the vector fragment following the manufacturer's instruction (New England Biolabs, Ipswich, Mass.).
CHO-K1, BHK-21 hamster fibroblast (ATCC, Manassas, Va.) and bEnd.3 mouse endothelial cells (ATCC, Manassas, Va.) were cultured in 5 mL Iscove's Modified Dulbecco's Medium (IMDM, Hyclone Laboratories Inc., Logan, Utah) supplemented with 10% fetal bovine serum (FBS, Hyclone Laboratories Inc., Logan, Utah) in T-25 culture flasks (Corning Inc., Corning, N.Y.) at 37° C. and 5% CO2. […]
CHO-K1, bEnd.3 or transfected CHO-K1 cells were seeded in chambers of an 8-well chambered cover glass (Cellvis, Mountain View, Calif.) at 2×10^5 cells/mL with 0.5 mL culture media. […] At least 50 cells and foci were counted per cell sample in duplicate cultures using software ImageJ.

bleomycin
DSB repair rate after removing bleomycin ([1]; bEnd.3 cells, 12-hour treatment with 10 μg/mL bleomycin): 1.03 DSB per hour | Induced DSB number ([1]; bEnd.3, BL 10 μg/mL): 14 | Induced DSB number ([1]; bEnd.3, BL 50 μg/mL): 21 | Repair rate ([1]; bEnd.3, after BL 10 μg/mL one-hour treatment): 2.2 DSB/hour | Repair rate ([1]; bEnd.3, after BL 50 μg/mL one-hour treatment): 3.2 DSB/hour | DSB repair rate after removing bleomycin ([2]; CHO cells, 12-hour treatment with 10 μg/mL bleomycin): 0.89 DSB per hour | Induced DSB number ([2]; CHO-K1, BL 10 μg/mL): 6 | Induced DSB number ([2]; CHO-K1, BL 50 μg/mL): 13 | Repair rate ([2]; CHO-K1, after BL 10 μg/mL one-hour treatment): 0.9 DSB/hour | Repair rate ([2]; CHO-K1, after BL 50 μg/mL one-hour treatment): 1.7 DSB/hour | Induced DSB number ([3]; BHK-21, BL 10 μg/mL): 13 | Induced DSB number ([3]; BHK-21, BL 50 μg/mL): 20 | Repair rate ([3]; BHK-21, after BL 10 μg/mL one-hour treatment): 1.8 DSB/hour | Repair rate ([3]; BHK-21, after BL 50 μg/mL one-hour treatment): 2.3 DSB/hour | DSB repair rate after removing bleomycin ([3]; BHK-21 cells, 12-hour treatment with 10 μg/mL bleomycin): 2.64 DSB per hour

B1: LIG4: heterologous DSB repair protein DNA ligase IV, CH- or CHO-version, expressed from plasmid in CHO-K1 cells (protein, UniProt G3GTP0 1-912, looked up)
DNA ligase 4: MATSQTSQTVAAHVPFADLCSTLERIQKSKERAEKIRHFKEFLDSWRKFHDALHKNKKDVTDSFYPAMRLILPQLERERMAYGIKETMLAKLYIELLNLPREGKDALKLLNYRTPSGARTDAGDFAVIAYFVLKPRCLQKGSLTIQQVNELLDLVASNNSGKRKDLVKKSLLQLITQSSALEQKWLIRMIIKDLKLGVSQQTILNIFHNDAVELHNVTTDLEKVCRQLHDPAVGLSDISITLFSAFKPMLAAVADVERVEKDMKQQSFYIETKLDGERMQMHKDGSVYQYFSRNGYNYTDQFGASPQEGTLTPFIHDAFRTDVQVCILDGEMMAYNPTTQTFMQKGVKFDIKRMVEDSDLQTCYCVFDVLMVNNKKLGRETLRKRYDILNSTFTPIQGRIEIVQKKLAQTKNEVVDALNEAIDKREEGIMIKHPLSIYKPDKRGEGWLKIKPEYVSGLMDELDLLIVGGYWGKGSRGGMMSHFLCAVAEKPPHGEKPSVFHTLCRVGSGYTMKELYDLGLKLAKYWKPFHKKSPPSSILCGTEKPEVYIEPCNSVIVQIKAAEIVPSDMYKTGTTLRFPRIEKIRDDKEWHECMTLGDLEELRGKASGKLATKHLHVGDDDEPREKRRKPVSKMKKTIGIIEHLKAPNLSNISKVSNVFEDVEFCVMSGLDGYPKSDLENRIAEFGGYIVQNPGPDTYCVIAGCENIRVKNIISSDQHDVVKPEWLLECFKTKTCVPWQPRFMIHMCPSTKQHFAREYDCYGDSYFVDTDLDQLKEVFLGIKKAGEHQTPEEMAPVIADLEYRYSWDHSPLCMFRHCTVYLDLYAVINDSSSKIKATRLDVTALELRFHGAKVVSHLSEGVSHVIIGENQSRVSDFKVFRRTLKKKFKILQERWVTDSVDKGELQEENQYLL
DSB level at one hour after bleomycin removal versus control CHO-K1 cells [4]: lower DSB level | DSB repair within 24 hours after bleomycin removal versus control CHO-K1 cells [4]: significantly improved DSB repair

Reference: patent US20210380948A1, “METHOD TO ALTER CHINESE HAMSTER OVARY CELL LINE STABILITY” (University of Delaware, priority 2018, published 2021)
